Data taken from US5912266A, “Beta2 integrin cell adhesion molecule inhibitors” (American Home Products Corporation, priority 1997, dated 1999).
Several values for one entry are separate records, joined by “and”; a condition that tells them apart may be missing. Identical values can stand only once.

Target: T1, E-selectin (Homo sapiens, UniProt P16581)
T1 construct: calcein-labelled HL60 cells adhere
T1 sequence (P16581 22-556 limits assumed): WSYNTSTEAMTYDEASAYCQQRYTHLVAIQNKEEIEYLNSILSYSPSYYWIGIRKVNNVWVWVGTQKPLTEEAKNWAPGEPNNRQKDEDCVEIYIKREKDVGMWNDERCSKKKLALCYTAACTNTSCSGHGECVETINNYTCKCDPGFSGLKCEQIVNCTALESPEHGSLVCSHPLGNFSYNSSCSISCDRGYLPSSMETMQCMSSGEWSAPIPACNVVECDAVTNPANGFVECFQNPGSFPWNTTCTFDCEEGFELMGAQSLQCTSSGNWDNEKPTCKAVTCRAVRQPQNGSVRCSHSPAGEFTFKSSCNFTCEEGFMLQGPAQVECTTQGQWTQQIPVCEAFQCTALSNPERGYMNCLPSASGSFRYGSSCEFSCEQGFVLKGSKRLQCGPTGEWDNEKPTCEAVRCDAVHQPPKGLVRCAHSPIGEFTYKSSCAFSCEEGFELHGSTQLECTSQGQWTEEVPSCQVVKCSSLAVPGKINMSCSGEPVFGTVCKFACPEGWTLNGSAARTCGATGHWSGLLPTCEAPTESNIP
Test: Adhesion of HL60 cells to recombinant, soluble, human E-selectin
Type: cell-based
Details: for Percent Cells Bound: single well
Procedure: rsE-selectin was prepared and purified using standard molecular biology techniques. HL60 cells were obtained from American Type Culture Collection (ATCC) and maintained in culture media, as described in Example I, except that cells could be used in the assay at any passage number. Other materials required for the assay are as described in Examples I and II.
200 ng of purified, recombinant, soluble E-selectin contained in 100 μl of dPBS was added to wells of a flat bottom 96 well EIA/RIA plate. The control wells were filled with dPBS only and the assay plate was incubated at 4° C. for at least 18 hours to allow the rsE-selectin to bind to assay wells. The rsE-selectin solution was removed from the wells of the assay plate, washed, and blocked with 1% BSA, as described in Example II.
HL60 cells were harvested from culture, washed and labeled with calcein AM as outlined in Example I, except that the concentration of calcein used to label the HL-60 cells was 12.5 μM and cells were centrifuged at 1000 rpm for 5 minutes. After the final cell wash (see Example I), the cells were resuspended in ice-cold PMN buffer to 1.0×10^5 cells/40 μl and the cells were placed in the dark at room temperature until added to the assay plate.
The asperlin solutions were prepared as described in Example I. The dPBS remaining in the wells of the assay plate was removed by inverting the plate and tapping it on paper toweling and the assay was performed as described in Example II. 100 μl of PMN buffer was added to all wells of the assay plate and the fluorescence of the adherent HL-60 cells binding to rsE-selectin was measured using a fluorescent plate reader, described in Example I. The percentage of HL60 cells binding to E-selectin and the percentage of inhibition of HL60 cell adhesion to E-selectin in the presence of asperlin were also quantitated as described in Example II.

Compound: CC(=O)OC1C=CC(=O)OC1C1OC1C [Asperlin, 6,7-Anhydro-2,3,8-trideoxy-D-galacto-oct-2-enoic acidδ-lactone 4-acetate]
- Average Percent Bound (Asperlin 100 μg/ml): 62%
- Bound Cell Fluorescence (Asperlin 100 μg/ml): 1412 fluorescence units/well and 1096 fluorescence units/well
- Percent Cells Bound (Asperlin 100 μg/ml): 64% and 59%
- Average Percent Bound (Asperlin 200 μg/ml): 48%
- Bound Cell Fluorescence (Asperlin 200 μg/ml): 1124 fluorescence units/well and 887 fluorescence units/well
- Percent Cells Bound (Asperlin 200 μg/ml): 52% and 44%
- inhibition at 100 µg/mL (HL-60, Asperlin 100 μg/ml): -19%
- inhibition at 200 µg/mL (HL-60, Asperlin 200 μg/ml): 8%
- Effect on E-selectin mediated HL60 cell binding (in words) (summary of Table III): does not inhibit E-selectin mediated HL60 cell binding
